# Test results taken from ChEMBL document CHEMBL3352736, “Synthesis and preliminary biological evaluation of new antiproliferative aromatic analogues of 1α,25-dihydroxyvitamin D3” (Eur J Med Chem, 2014).
# System: HL-60
# Assay: […] of human HL60 cells incubated for 144 hrs by Wst-1 dye based assay
# Assay type: functional
# Settings: HL-60, 144 h
row,IC50 [µM],SMILES
1,32.4,CC(C)CCC[C@@H](C)[C@H]1CC[C@H]2/C(=C/c3cccc(CO)c3CO)CCC[C@]12C
2,63.2,CC(C)CCC[C@@H](C)[C@H]1CC[C@H]2/C(=C/c3ccc(CO)c(CO)c3)CCC[C@]12C
3,1.4,C[C@H](CCCC(C)(C)O)[C@H]1CC[C@H]2/C(=C/c3cccc(C(O)CCO)c3)CCC[C@]12C (some centres not stated)
4,7.8,C[C@H](CC#CC(C)(C)O)[C@H]1CC[C@H]2/C(=C/c3cccc(C(O)CCO)c3)CCC[C@]12C (some centres not stated)
5,0.6,C[C@H](CC#CC(C)(C)O)[C@H]1CC[C@H]2/C(=C/c3ccc(CO)c(CO)c3)CCC[C@]12C
6,5.4,CC(C)CCC[C@@H](C)[C@H]1CC[C@H]2/C(=C/c3cccc(C(O)CCO)c3)CCC[C@]12C (some centres not stated)
7,> 100,C[C@H](CC#CC(C)(C)O)[C@H]1CC[C@H]2/C(=C/c3cccc(CO)c3CO)CCC[C@]12C
